Tests used:
Type in all cases: functional
[1] = tested on: NCI-H460; experiment: Cytotoxicity against human NCI-H460 cell assessed as cell death at 1 uM after 12 hrs by Hoechst 33342/propidium iodide staining based fluorescence microscopy
[2] = tested on: NCI-H460; experiment: Cytotoxicity against human NCI-H460 cell assessed as cell death at 100 uM after 12 hrs by Hoechst 33342/propidium iodide staining based fluorescence microscopy
[3] = tested on: NCI-H460; experiment: Cytotoxicity against human NCI-H460 cell assessed as cell death at 10 nM after 12 hrs by Hoechst 33342/propidium iodide staining based fluorescence microscopy
[4] = tested on: NCI-H460; experiment: Induction of apoptosis in human NCI-H460 cells in at 50 nM after 12 hrs by Hoechst 33342/propidium iodide staining based fluorescence microscopy
[5] = tested on: NCI-H460; experiment: Cytotoxicity against human NCI-H460 cell assessed as cell death at 100 nM after 12 hrs by Hoechst 33342/propidium iodide staining based fluorescence microscopy
[6] = tested on: NCI-H460; experiment: Cytotoxicity against human NCI-H460 cell assessed as cell death at 500 nM after 12 hrs by Hoechst 33342/propidium iodide staining based fluorescence microscopy
[7] = tested on: NCI-H460; experiment: Cytotoxicity against human NCI-H460 cells in serum free medium assessed as cell death at 10 uM after 12 hrs by Hoechst 33342/propidium iodide staining based fluorescence microscopy
[8] = tested on: NCI-H460; experiment: Cytotoxicity against human NCI-H460 cell assessed as cell death at 50 nM after 12 hrs by Hoechst 33342/propidium iodide staining based fluorescence microscopy
[9] = tested on: NCI-H460; experiment: Cytotoxicity against human NCI-H460 cell assessed as cell death after 12 hrs by Hoechst 33342/propidium iodide staining based fluorescence microscopy; conditions: NCI-H460, 12 h

| SMILES | Activity [1] | Activity [2] | Activity [3] | Activity [4] | Activity [5] | Activity [6] | Activity [7] | Activity [8] | IC50 [9] |
| --- | --- | --- | --- | --- | --- | --- | --- | --- | --- |
| C[C@@H]1O[C@@H](O[C@H]2CC[C@@]3(C)[C@H](CC[C@@H]4[C@@H]3CC[C@]3(C)[C@@H](C5=CC(=O)OC5)CC[C@]43O)C2)[C@H](O)[C@H](O)[C@H]1O | 100% | 100% | 17.04% | 48.64% | 96.96% | 100% | 100% | 60.56% |  |
| C[C@H]1O[C@H](O[C@H]2CC[C@@]3(C)[C@H](CC[C@@H]4[C@@H]3CC[C@]3(C)[C@@H](C5=CC(=O)OC5)CC[C@]43O)C2)CC[C@@H]1O[C@@H]1CC[C@H](O[C@@H]2CC[C@H](O)[C@@H](C)O2)[C@@H](C)O1 | 9.84% | 53.1% | 6.55% |  | 8.57% | 9.11% | 26.48% | 7.85% | 33.1 µM |
| C[C@@H]1O[C@@H](O[C@@H]2[C@@H](O)[C@@H](O)[C@H](O[C@H]3CC[C@@]4(C)[C@H](CC[C@@H]5[C@@H]4CC[C@]4(C)[C@@H](C6=CC(=O)OC6)CC[C@]54O)C3)O[C@H]2C)[C@H](O)[C@H](O)[C@H]1O | 92.06% | 100% | 12.68% |  | 20.51% | 62.95% | 100% | 16.8% | 0.365 µM |
| C[C@@H]1O[C@@H](O[C@@H]2[C@@H](O)[C@@H](O)[C@H](O[C@@H]3[C@@H](O)[C@@H](O)[C@H](O[C@H]4CC[C@@]5(C)[C@H](CC[C@@H]6[C@@H]5CC[C@]5(C)[C@@H](C7=CC(=O)OC7)CC[C@]65O)C4)O[C@H]3C)O[C@H]2C)[C@H](O)[C@H](O)[C@H]1O | 43.65% | 100% | 10.71% |  | 15.21% | 38.97% | 94.07% | 12.17% | 1.35 µM |
| C[C@@H]1O[C@@H](O[C@@H]2CC[C@H](O[C@H]3CC[C@@]4(C)[C@H](CC[C@@H]5[C@@H]4CC[C@]4(C)[C@@H](C6=CC(=O)OC6)CC[C@]54O)C3)O[C@H]2C)CC[C@H]1O | 94.59% | 100% | 8.73% |  | 18.03% | 53.76% | 100% | 14.89% | 0.51 µM |
| C[C@@H]1O[C@@H](O[C@@H]2CC[C@H](O[C@@H]3CC[C@H](O[C@H]4CC[C@@]5(C)[C@H](CC[C@@H]6[C@@H]5CC[C@]5(C)[C@@H](C7=CC(=O)OC7)CC[C@]65O)C4)O[C@H]3C)O[C@H]2C)CC[C@H]1O | 25.85% | 91.74% | 8.34% |  | 11.8% | 16.46% | 70.17% | 10.85% | 3.96 µM |
| C[C@H]1O[C@H](O[C@H]2CC[C@@]3(C)[C@H](CC[C@@H]4[C@@H]3CC[C@]3(C)[C@@H](C5=CC(=O)OC5)CC[C@]43O)C2)[C@@H](O)[C@@H](O)[C@@H]1O | 71.67% | 100% | 7.85% | 45.71% | 12.28% | 35.05% | 95.72% | 12.14% | 0.706 µM |
| C[C@H]1O[C@H](O[C@H]2[C@H](O)[C@H](O)[C@@H](O[C@H]3CC[C@@]4(C)[C@H](CC[C@@H]5[C@@H]4CC[C@]4(C)[C@@H](C6=CC(=O)OC6)CC[C@]54O)C3)O[C@@H]2C)[C@@H](O)[C@@H](O)[C@@H]1O | 14.52% | 73.4% | 6.36% |  | 9.87% | 11.06% | 58.09% | 7.37% | 4.27 µM |
| C[C@H]1O[C@H](O[C@H]2[C@H](O)[C@H](O)[C@@H](O[C@H]3[C@H](O)[C@H](O)[C@@H](O[C@H]4CC[C@@]5(C)[C@H](CC[C@@H]6[C@@H]5CC[C@]5(C)[C@@H](C7=CC(=O)OC7)CC[C@]65O)C4)O[C@@H]3C)O[C@@H]2C)[C@@H](O)[C@@H](O)[C@@H]1O | 8.37% | 59.91% | 6.44% |  | 7.17% | 7.99% | 28.42% | 6.85% | 18 µM |
| C[C@H]1O[C@H](O[C@H]2CC[C@@]3(C)[C@H](CC[C@@H]4[C@@H]3CC[C@]3(C)[C@@H](C5=CC(=O)OC5)CC[C@]43O)C2)CC[C@@H]1O[C@@H]1CC[C@H](O)[C@@H](C)O1 | 15.99% | 71.1% | 9.06% |  | 11.49% | 12.91% | 50.25% | 10.01% | 5.99 µM |

— ChEMBL document CHEMBL1817541, “Synthesis and Evaluation of the α-D-/α-L-Rhamnosyl and Amicetosyl Digitoxigenin Oligomers as Anti-tumor Agents” (ACS Med Chem Lett, 2011)
